Molecular target: 5-hydroxytryptamine receptor 7 (Homo sapiens, UniProt P34969)
Experiment: Displacement of [3H]LSD from 5-HT7 receptor (unknown origin) expressed in CHO-K1 cells by liquid scintillation counting method

5-hydroxytryptamine receptor 7, sequence (P34969 whole entry): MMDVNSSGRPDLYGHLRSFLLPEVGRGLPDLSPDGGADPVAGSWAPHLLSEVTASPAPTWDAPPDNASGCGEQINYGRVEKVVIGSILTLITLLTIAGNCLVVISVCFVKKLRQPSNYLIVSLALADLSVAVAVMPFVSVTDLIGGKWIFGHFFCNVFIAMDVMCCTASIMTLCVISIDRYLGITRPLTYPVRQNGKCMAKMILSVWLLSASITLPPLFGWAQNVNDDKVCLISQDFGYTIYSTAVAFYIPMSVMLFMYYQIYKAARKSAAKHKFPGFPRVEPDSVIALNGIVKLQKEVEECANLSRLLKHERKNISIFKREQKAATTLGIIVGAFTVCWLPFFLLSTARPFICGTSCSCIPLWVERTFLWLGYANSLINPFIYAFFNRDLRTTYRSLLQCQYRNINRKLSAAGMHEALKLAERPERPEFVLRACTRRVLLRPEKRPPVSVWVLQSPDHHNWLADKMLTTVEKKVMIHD

CC1CCCN(CCCCC(=O)n2c3ccccc3c3ccccc32)C1 (stereo unspecified)
Ki: 794 nM

From BindingDB's records for doi:10.1016/j.ejmech.2016.01.043 (Yonsei University, 2016)
